Data on nine molecules can be found in article PMC10555500, “Evaluation of the Antiproliferative Properties of CpRu Complexes Containing N-Methylated Triazaphosphaadamantane Derivatives” (Bioinorganic Chemistry and Applications, 2023).

Bounds are passed on as bounds.

Broadly, the IC50 is the concentration at which inhibition is half-maximal.

Data set [1] concerns MDA-MB-231 breast cancer cells. Kind of data set: MTT cytotoxicity assay, MDA-MB-231 cells. Particulars: for IC50: 24 h incubation, MTT, average of at least three experiments (±SD); for Cytotoxicity (in words): MDA-MB-231, MTT, 24 h. Type of data set: cell-based, human. The procedure: (§1) The MDA-MB-231 and MCF-7 human breast cancer cells were purchased from ATCC. The MDA-MB-231 and MCF-7 cells were grown in Dulbecco's modified Eagles' medium (DMEM high glucose) (Capricorn Scientific) at 37°C in 5% CO2 supplemented with 10% fetal bovine serum (Capricorn Scientific). HDF cells were purchased from Merck and were grown in the fibroblast growth medium. All cells were adherent in monolayers and, upon confluence, were washed with phosphate buffer saline (PBS) and harvested by digestion with trypsin-EDTA 0.05% (v/v). The cells were suspended and transferred into new, sterile, culture flasks for maintenance or seeded in sterile test microplates for different assays. All cells were manipulated under aseptic conditions in a flow chamber.
(§2) The cells were adherent in monolayers and, upon confluence, were harvested by digestion with trypsin. The cytotoxicity of the complexes against the tumour cells was assessed using the colorimetric assay MTT […], which evaluates the metabolic activity of viable cells. This assay measures the conversion of yellow tetrazolium into purple formazan by an active mitochondrial dehydrogenase in living cells. For this purpose, the cells (10–20 × 10^3 in 200 μL of the medium) were seeded into 96-well plates and incubated in a 5% CO2 incubator at 37°C. The cells were settled for 24 h followed by the addition of a dilution series of the complexes in a medium (200 μL). The complexes were first solubilized in 100% DMSO, given a 10 mM stock solution, and then in a medium within the concentration range of 0.1–100 µM. […] After 24 h of incubation, the treatment solutions were removed by aspiration, and MTT solution (200 μL, 0.5 mg·mL^−1 in PBS) was added to each well. After 3 h at 37°C/5% CO2, the solution was removed, and the purple formazan crystals formed inside the cells were dissolved in DMSO (200 μL) by thorough shaking. The cellular viability was evaluated by measuring the absorbance at 570 nm by using a microplate spectrophotometer. The IC50 values were obtained by dose-response curves using the GraphPad Prism software (vs. 5).
The MDA-MB-231 and MCF-7 human breast cancer cells were purchased from ATCC. MDA-MB-231 and MCF-7 cells were grown in Dulbecco’s modified Eagles’s medium (DMEM high glucose) (Capricorn Scientific) at 37 °C in 5% CO2 supplemented with 10% fetal bovine serum (Capricorn Scientific). All cells were adherent in monolayers and, upon confluence, were washed with phosphate buffer saline (PBS) and harvested by digestion with Trypsin-EDTA 0.05% (v/v). The cells were suspended and transferred into new, sterile, culture flasks, for maintenance or seeded in sterile test microplates for different assays. All cells were manipulated under aseptic conditions in a flow chamber.
The cells were adherent in monolayers and, upon confluency, were harvested by digestion with trypsin. The cytotoxicity of the complexes against the tumour cells was assessed using the colorimetric assay MTT […], which evaluate the metabolic activity of viable cells. This assay measures the conversion of the yellow tetrazolium into purple formazan by an active mitochondrial dehydrogenase in living cells. For this purpose, cells (10-20 × 10^3 in 200 μL of medium) were seeded into 96-well plates and incubated in a 5% CO2 incubator at 37 °C. The cells were settled for 24 h followed by the addition of a dilution series of the complexes in medium (200 μL). The complexes were first solubilized in 100% DMSO, given a 10 mM stock solution, and then in medium within the concentration range of 0.1–100 µM. […] After 24 h of incubation, the treatment solutions were removed by aspiration, and MTT solution (200 μL, 0.5 mg·mL^-1 in PBS) was added to each well. After 3 h at 37 °C/5% CO2, the solution was removed, and the purple formazan crystals formed inside the cells were dissolved in DMSO (200 μL) by thorough shaking. […]

Data set [2] is described as follows: Stability in DMSO-d6 and DMSO-d6/D2O monitored by 31P{1H} NMR. Type of data set: physicochemical. To be noted: room temperature and 37°C, 48 h, 31P{1H} NMR. The source says: The assessment of the biological properties of the complexes requires their dissolution in a cell culture medium which is mainly constituted by water. When the complex is not hydrosoluble enough, the used protocol contemplates preliminary dissolution in DMSO before the addition to the culture medium. Thus, it is important to determine the stability and behaviour of the complexes in both DMSO and water/DMSO mixtures to check whether different species have been formed when dissolved. Dissolutions in DMSO-d6 and DMSO-d6/D2O of the new complexes 8 and 11 were monitored by ^31P{^1H} NMR over time at room temperature and 37°C. The stability studies of the rest of the complexes (1‐7, 9, 10) were published previously. All experiments were performed by a similar procedure: the complex (0.01 g) was introduced into a 5 mm NMR tube and dissolved in 0.5 mL of degassed solvent (DMSO-d6 and a 1 : 1 mixture of DMSO-d6/D2O). The solution was left at room temperature and monitored by ^31P{^1H} NMR first every 15 minutes, and later in longer periods. Stability was also monitored at incubation cell-based assay temperature (37°C).
All compounds were studied for their stability in 100% DMSO-d6 and DMSO-d6/D2O mixture by using NMR spectroscopy in common aerobic conditions. All experiments were performed by a similar procedure: the complex (0.01 g) was introduced into a 5 mm NMR tube and dissolved in 0.5 mL of degassed solvent (DMSO-d6 and a 1:1 mixture of DMSO-d6/D2O). The solution was left at room temperature and monitored by ^31P{^1H} NMR first every 15 minutes, and later in longer time periods. Stability was also monitored at incubation cell-based assays temperature (37 °C).

Data set [3] concerns the target human serum albumin (HSA) (Homo sapiens, UniProt P02768). Kind of data set: Binding to human serum albumin by steady-state and time-resolved Trp214 fluorescence. Here is the method: The stock solutions of HSA were freshly prepared for each experiment by gently dissolving protein in PBS pH 7.4 (tablets from Fisher) for 1 hour to allow protein to completely hydrate. The concentration of the protein in the stock solutions was determined by spectrophotometry using the molar absorption coefficient at 280 nm ε280(HSA) = 36,850 M^−1·cm^−1 [38].
In each essay, all spectroscopic measurements were carried out on individually prepared samples to ensure the same preincubation time at (37.0 ± 0.1)°C, the same % of DMSO in the final samples, and the same exposure to excitation light and to avoid the need for dilution corrections. Moreover, for a direct titration protocol, a highly concentrated stock solution of the compounds in the buffer would be required, which would raise solubility issues. Dimethylsulfoxide (DMSO, from Fisher) was used to prepare concentrated stock solutions of each complex, followed by appropriate dilution to obtain the desired concentration. The DMSO content was kept at 2% (v/v) in PBS pH 7.4 in all samples. Dilutions were carried out immediately before sample preparation.
Fluorescence measurements were performed at 25.0 ± 0.1°C. The final protein concentration in the individually prepared samples (3.72 to 5 μM) was kept constant in each assay, and the complex concentration was varied to obtain desired HSA: Ru-complex molar ratios ranging from 1 : 0.25 to 1 : 10. A control sample containing the same amount of protein and final DMSO content and with no complex was also prepared for each experiment. Appropriate blank samples with no protein but with the same complex concentrations were prepared as well for background correction.
The steady-state fluorescence intensity was measured with excitation at 295 nm, and emission spectra were collected with bandwidths of 4 nm for both excitation and emission. For Stern–Volmer plots, the fluorescence intensity with emission at 340 nm was selected because it is near the maximum emission wavelength (so the sensitivity is close to maximum), but it is further to red in relation to the water Raman scattering peak. These values were corrected for the absorption and emission inner filter effects using the absorbance recorded for each sample at the excitation and emission wavelengths used for the steady-state quenching analysis. For time-resolved fluorescence measurements, the single-photon-counting technique was used with nanoLED N-280 (Horiba Jobin Yvon) as the pulsed excitation source (280 nm) and with emission collected at 350 nm (13 nm emission bandwidth), eliminating the contribution of the emission by tyrosine residues.
The experimental fluorescence intensity decays of HSA in buffer solution can be described by a sum of exponentials:(1) It=∑i=1npiexp−t/τi, where pi and τi are the pre-exponential factors and lifetime of component i, respectively. The amplitude or normalized pre-exponential of each lifetime component αi is pi/Σipi with Σiαi = 1. Fluorescence decays were analysed by an iterative deconvolution method using the TRFA Data Processor software (version 1.4; Minsk, Belarus), and the instrument response function was obtained using scattering by a colloidal suspension of silica (Ludox®, Sigma-Aldrich) diluted in water. Criteria for judging the quality of the fit were reduced χ^2 close to 1 and a random distribution of weighted residuals and residual autocorrelation.
To evaluate changes in the quantum yield by processes affecting the fluorescence lifetimes of HSA, the amplitude-weighted mean fluorescence lifetime ( τ¯ ) was calculated using the following equation:(2) τ¯=∑i=1nαiτi.
The stock solutions of HSA were freshly prepared for each experiment by gently dissolving the protein in PBS pH 7.4 (tablets from Fisher) for 1 hour to allow the protein to completely hydrate. The concentration of protein in the stock solutions was determined by spectrophotometry using the molar absorption coefficient at 280 nm ε280(HSA) = 36,850 M^−1 cm^−1.[8] […]

Data set [4] relates to MCF-7 breast cancer cells. In words: MTT cytotoxicity assay, MCF-7 cells. It is filed as cell-based, human. Particulars: 24 h incubation, average of at least three experiments (±SD). The procedure: as §1
The cells were adherent in monolayers and, upon confluence, were harvested by digestion with trypsin. The cytotoxicity of the complexes against the tumour cells was assessed using the colorimetric assay MTT […], which evaluates the metabolic activity of viable cells. This assay measures the conversion of yellow tetrazolium into purple formazan by an active mitochondrial dehydrogenase in living cells. For this purpose, the cells (10–20 × 10^3 in 200 μL of the medium) were seeded into 96-well plates and incubated in a 5% CO2 incubator at 37°C. The cells were settled for 24 h followed by the addition of a dilution series of the complexes in a medium (200 μL). The complexes were first solubilized in 100% DMSO, given a 10 mM stock solution, and then in a medium within the concentration range of 0.1–100 µM. […] The cellular viability was evaluated by measuring the absorbance at 570 nm by using a microplate spectrophotometer. […]
The cells were adherent in monolayers and, upon confluency, were harvested by digestion with trypsin. The cytotoxicity of the complexes against the tumour cells was assessed using the colorimetric assay MTT […], which evaluate the metabolic activity of viable cells. […]
For orientation: Formazan colour is commonly taken as a measure of viable cells.

The subject of data set [5] is normal human fibroblasts (HDF). Kind of data set: MTT cytotoxicity assay, normal human dermal fibroblasts. It is filed as cell-based. Here is the method:
as §1, §2

Sequence of human serum albumin (HSA) (P02768 25-609): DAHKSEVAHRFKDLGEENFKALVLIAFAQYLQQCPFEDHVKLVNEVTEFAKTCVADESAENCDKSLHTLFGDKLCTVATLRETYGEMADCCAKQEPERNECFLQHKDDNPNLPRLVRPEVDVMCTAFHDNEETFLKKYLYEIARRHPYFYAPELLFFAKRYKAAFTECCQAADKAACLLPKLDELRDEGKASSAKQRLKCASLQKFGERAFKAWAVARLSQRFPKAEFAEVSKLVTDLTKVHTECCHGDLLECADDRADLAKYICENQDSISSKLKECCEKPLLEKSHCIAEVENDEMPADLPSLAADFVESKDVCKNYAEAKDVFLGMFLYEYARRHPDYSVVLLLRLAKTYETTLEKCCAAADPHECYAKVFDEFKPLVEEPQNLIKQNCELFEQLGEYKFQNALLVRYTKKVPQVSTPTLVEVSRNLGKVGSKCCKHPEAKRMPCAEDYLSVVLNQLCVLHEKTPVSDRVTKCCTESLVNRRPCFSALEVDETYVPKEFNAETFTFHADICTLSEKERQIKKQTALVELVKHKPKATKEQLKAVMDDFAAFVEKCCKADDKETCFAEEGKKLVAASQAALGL

As to `C1N2CN3CN1CP(C2)C3` [Compound 1, 1,3,5-triaza-7-phosphaadamantane], the IC50 in data set [1] (Homo sapiens, MDA-MB-231) is > 100 µM.
Take `C[N+]12CN3CN(CP(C3)C1)C2` [Compound 2, N-methyl-1,3,5-triaza-7-phosphaadamantane]: in data set [1] (Homo sapiens, MDA-MB-231), the IC50 was > 100 µM.
For `C[N+]12CN3CP(C1)C[N+](C)(C3)C2` [Compound 3, N,N′-dimethyl-1,3,5-triaza-7-phosphaadamantane], in data set [1] (Homo sapiens, MDA-MB-231), the IC50 was > 100 µM.
In the case of `[Cl][Ru+]([P]12CN3CN(CN(C3)C1)C2)[P]12CN3CN(CN(C3)C1)C2.c1cc[cH-]c1` [Compound 4, [RuClCp(PTA)2]], in data set [1], the IC50 was > 100 µM and the “Cytotoxicity (in words)” value is reported as “noncytotoxic”.
Take `[Cl][Ru+]([P]12CN3CN(CN(C3)C1)C2)[P](c1ccccc1)(c1ccccc1)c1ccccc1.c1cc[cH-]c1` [Compound 5, [RuClCp(PPh3)(PTA)]]: in data set [1], the IC50 is 60 ± 19 µM and the “Cytotoxicity (in words)” value is listed as “Moderate cytotoxicity”.
In turn, `C[N+]12CN3CN(C1)C[P]([Ru+]([Cl])[P](c1ccccc1)(c1ccccc1)c1ccccc1)(C3)C2.O=S(=O)([O-])C(F)(F)F.c1cc[cH-]c1` [Compound 6, [RuClCp(PPh3)(mPTA)](CF3SO3)] yielded a half-inhibitory concentration (IC50) in data set [1] of 8.3 ± 1.4 µM. Also, the “Fold increase in cytotoxicity with respect to complex 5” value in data set [1] (MDA-MB-231, 24 h) amounted to 7 fold.
On to `CN1CN2C[NH+](C)C[P]([Ru+]([Cl])[P](c3ccccc3)(c3ccccc3)c3ccccc3)(C1)C2.O=S(=O)([O-])C(F)(F)F.c1cc[cH-]c1` [Compound 7, [RuClCp(HdmoPTA)(PPh3)](CF3SO3)], for which the IC50 in data set [1] was determined as 2.5 ± 1.1 µM. Moreover, the “Fold increase in antiproliferative activity with respect to complex 6” value in data set [1] (MDA-MB-231, 24 h) was determined as 4 fold.
For `CN1CN2C[NH+](C)C[P]([Ru+2]([P](c3ccccc3)(c3ccccc3)c3ccccc3)[S](C)(C)=O)(C1)C2.O=S(=O)([O-])C(F)(F)F.O=S(=O)([O-])C(F)(F)F.c1cc[cH-]c1` [Compound 8, [RuCp(DMSO-κS)(HdmoPTA)(PPh3)](CF3SO3)2], in data set [2], the “Stability in DMSO-d6” value is “stable” and the “Stability in DMSO-d6/D2O (1:1)” value is “stable”. 15 ± 2.2 µM corresponded to half-maximal inhibition in data set [1] (IC50).
On to `CN1CN2C[NH+](C)C[P]([Ru+2]([P](c3ccccc3)(c3ccccc3)c3ccccc3)[P](c3ccccc3)(c3ccccc3)c3ccccc3)(C1)C2.O=S(=O)([O-])C(F)(F)F.O=S(=O)([O-])C(F)(F)F.c1cc[cH-]c1` [Compound 9, [RuCp(HdmoPTA)(PPh3)2](CF3SO3)2], for which, in data set [3] (20 µM compound (1:4 HSA:compound), 24 h, λem 340 nm), the “Emission intensity of Trp214 relative to value in the absence of compound” value was “approximately 60%”. Further, the Type of quenching result in data set [3] (HSA-Trp214 fluorescence) is listed as “Static”. Further, the “Spectral shift of Trp214 emission” value in data set [3] (steady-state emission, 24 h incubation) is “do not induce any spectral shift”. In data set [3] (time-resolved fluorescence, λem 350 nm), the “Effect on amplitude-weighted mean fluorescence lifetime of HSA-Trp214” value is reported as “does not affect”. The IC50 in data set [1] was 0.86 ± 0.13 µM; in data set [4], 0.48 ± 0.07 µM; in data set [5] (24 h incubation, MTT, normal human fibroblasts) it was 1.23 ± 0.32 µM. In data set [5] (selectivity HDF vs MCF-7), the “Fold less cytotoxic for fibroblasts (HDF) than for MCF-7 cells” value is reported as 2-3 fold. In addition, the “Fold less cytotoxic for fibroblasts (HDF) than for MDA-MB-231 cells” value in data set [5] (selectivity HDF vs MDA-MB-231) stood at 1.5 fold.
